Where no end group is shown, it is not given here.
Columns and labels:
[1] = test system: vesicular monoamine transporter 2 (VMAT2); design: method as in PMID 23702798, PMID 25113527; settings: at 10 μM; cited from earlier work
dopamine reuptake = test system: dopamine reuptake; design: method as in PMID 23702798, PMID 25113527; settings: at 10 μM; cited from earlier work
serotonin reuptake = test system: serotonin reuptake; design: method as in PMID 23702798, PMID 25113527; settings: at 10 μM; cited from earlier work
5-HT2A receptor = biological target: 5-HT2A receptor; design: method as in PMID 23702798, PMID 25113527; settings: partial agonist; cited from earlier work
GABAA receptor = test system: GABAA receptor; design: method as in PMID 23702798, PMID 25113527; settings: cited from earlier work
5-HT2C receptor = test system: 5-HT2C receptor; design: method as in PMID 23702798, PMID 25113527; settings: cited from earlier work
HIV = settings: Table 1, reference not given; cited from earlier work
[2] = Table 1, literature values, no reference given; cited from earlier work
[3] = test system: ATP-dependent K+ currents of mouse pancreatic B-cells; settings: in the absence of albumin; Table 1, reference not given; read-out: concentration blocking currents half maximally; cited from earlier work
[4] = cited from earlier work
[5] = test system: PD-1 expression on CD3+CD4+ cells; experiment: PD-1 expression on CD4+ T-cells in PBMC, flow cytometry; assay type: cell-based, human
Procedure: (§1) For cytokine and PD-1 assessment experiments freshly isolated peripheral blood mononuclear cell (PBMC) purchased from the Human Immunology Core Facility of The University of Pennsylvania School of Medicine (Philadelphia, PA) were cultured in RPMI medium supplemented with 10 % FBS overnight. Some cultures were treated with SP (10 µM) aprepitant (10 µM) or DMSO (0.001 %, vehicle for aprepitant). Cytokine concentrations were measured in supernatants using multiplex assay 24 h after SP/aprepitant treatment (see below). For PD-1 expression SP and aprepitant were added at day 0 and PD-1 expression was monitored daily for up to 8 days using flow cytometry.
Fig. 6 Aprepitant blocks SP induced PD-1 expression on CD4+ T-cells. PBMC were treated for 7 days with SP and aprepitant as indicated. PD-1 expression was measured by flow cytometry on CD3+CD4+ cells and expressed as percentage of PD-1 positive cells. a Results from representative experiment are shown. First two columns show gaiting strategy. […] Median (spread): control 14.7 (11.1), SP treated 38.4 (60.6), SP + aprepitant treated 7.8 (6.0) TEXT PRINTED IN THE PICTURE: (a) SP: PD1+ 67.1 | (a) SP + aprepitant: PD1+ 9.53 DOUBTS OF THE COPYIST ABOUT THIS PICTURE: SP + aprepitant, PD1+ 9.53: the sign after PD1 looks like '+' or '−' because it touches the gate line / SP + aprepitant, 9.53: small print, so the digits 9, 5 and 3 are not fully certain / The rows 'no staining' (PD1+ 0.079) and 'control' (PD1+ 11.4) were left out because they are not substances

[6] = test system: CD163 cleavage in human monocytes; experiment: sCD163 release from human monocytes, ELISA; assay type: cell-based; settings: SP, time- and dose-dependent, p < 0.001
Procedure: sCD163 was measured by ELISA (Trillium Diagnostics, Brewer, Maine, USA) according to manufacturer’s recommendations.
Fig. 7 SP induces cleavage of CD163 in monocytes. sCD163 was measured by ELISA in the supernatant of freshly isolated human monocytes treated with SP and aprepitant as indicated. a Time course of cells treated with varying doses of SP as indicated. *p < 0.001 control versus 5 and 10 μM of SP. b Cells were pre-incubated with aprepitant (10 μM) for 30 min and then treated with SP (5 μM) for 60 min. *p < 0.001 SP versus control, p = 0.004 SP versus SP + aprepitant. Results are presented as mean ± SD from three independent experiments

human PBMC = experiment: SP dependent cytokine and chemokine production by PBMC, multiplex assay; assay type: cell-based; settings: SP 10 µM, 24 h
Procedure: as §1
Concentrations of pro-inflammatory cytokines and chemokines in supernatants of human PBMC were measured using human Cytokine/Chemokine Magnetic Bead Panel—Premixed 30 Plex, HCYTMAG-60K-PX30 (Millipore, Billerica, MA, USA) as recommended by the manufacturers.
Fig. 5 SP dependent up regulation of cytokine and chemokine production by human PBMC* is inhibited by aprepitant. *Freshly isolated PBMC from normal donors were incubated for 24 h with SP and/or Aprepitant (10 µM each) as indicated. Control cultures were either left untreated of incubated with DMSO (vehicle for aprepitant). Pro-inflammatory markers were measured in supernatants using MILLIPORE Human Cytokine/Chemokine Magnetic Bead Panel.

O=C1Nc2ccc(Cl)cc2[C@@](C#CC2CC2)(C(F)(F)F)O1 [Efavirenz]
VMAT2 inhibition [1]: 60% | dopamine reuptake inhibition (dopamine reuptake): 75% | serotonin reuptake inhibition (serotonin reuptake): 50% | Ki (5-HT2A receptor): 2.2 µM | action at GABAA receptor (GABAA receptor): positive allosteric modulator | action at 5-HT2C receptor (5-HT2C receptor): ligand | Plasma concentrations that appear to suppress HIV replication (HIV): Plasma concentrations above 2 mg/L appear to suppress HIV replication

NS(=O)(=O)c1cc(C(=O)O)c(NCc2ccco2)cc1Cl [Furosemide]
PB % [2]: Furosemide (91–99 %)

CCC[C@@H]1C[C@@H](C(=O)N[C@@H]([C@H]2O[C@H](SC)[C@H](O)[C@@H](O)[C@H]2O)[C@H](C)Cl)N(C)C1 [Clindamycin]
PB % [2]: Clindamycin (95 %)

CCCCNC(=O)NS(=O)(=O)c1ccc(C)cc1 [Tolbutamide]
IC50 [3]: 4.1 µM

CCCC(CCC)C(=O)O [Valproic Acid]
therapeutic range (total) ([4]; in vivo): The therapeutic range for valproic acid (total) is 50–125 µg/mL

CN1C(=O)CN=C(c2ccccc2)c2cc(Cl)ccc21 [Diazepam]
PB % [2]: Diazepam+ (98.5 %) | target concentrations ([4]; Table 1 footnote, no reference given): < 1 µg/mL

substance P (RPKPQQFFGLM; ends and bridges not checked; UniProt P20366 58-68, looked up) [SP, substance P, ligand of its preferring receptor NK1R]
percentage of PD-1 positive CD4 cells, median (spread) ([5]; SP treated, 7 days, five experiments, control 14.7 (11.1)): 38.4 (60.6) % | PD-1 expression by CD4 T-cells ([5]; incubation of PBMC with SP, 6–8 days, p = 0.03): increased PD-1 expression | release of sCD163 [6]: fast release | production of G-CSF, IL-6, IL-8, TNFα and MIP-1α (human PBMC): upregulated | production of MCP-1 (human PBMC): increased production

O=C1NC(=O)C(c2ccccc2)(c2ccccc2)N1 [Phenytoin]
clinically effective serum trough concentration ([4]; in vivo): The clinically effective serum trough concentration is usually 40 to 80 µmol/L.

— PMC4880976, “Pharmacologic rationale for the NK1R antagonist, aprepitant as adjunctive therapy in HIV” (Journal of Translational Medicine, 2016)
